{
  "source": "paper PMC9783648",
  "about": "“Comparative Analysis of Aristolochic Acids in Aristolochia Medicinal Herbs and Evaluation of Their Toxicities” (Toxins, 2022)",
  "key": {"[1]": {"test": "Cytotoxicity assay, MTT method", "type": "cell-based, Human", "conditions": "human, HepG2, MTT, 72 h incubation, n = 3", "experimental": "(§1) The cytotoxicity of the compounds to HepG2 was determined using the MTT method. First, the cells were transferred from the culture dish to a centrifuge tube, and centrifuged for 5 min (at 1000 r/min). After discarding the supernatant, the tumor cells were cultured in a complete medium containing 15% fetal bovine serum at 37 C, 5% CO2, and saturated humidity. When the cells grew logarithmically, they were spread onto plates, and the cell density was adjusted to 8.0 × 10^4 cells/mL before the cell sap was added into a 96-well plate (200 µL per well). The cells grew adherent for 24 h. After 24 h, 2 µL of two standards, two extracts of medicinal herbs were added to each plate well and incubated for 72 h. Adriamycin was used as the positive control, and the blank control contained 2 µL DMSO. After incubation, 20 μL of 5 mg/mL MTT solution was added, and the plates were incubated for 4 h. The supernatant liquid was removed, and the cells were disrupted with 200 µL of DMSO for 10 min. After the blue crystalline substance was fully dissolved, the absorbance value was measured on a microplate reader with the detection wavelength of 562 nm and the reference wavelength of 630 nm. The IC50 value of each compound was calculated."}, "[2]": {"tested_on": "DNA of HepG2 cells", "test": "Comet assay, DNA damage", "type": "cell-based, Human", "conditions": "for damage to the DNA of HepG2 cells / tail length compared with blank control group: AAI 50 μM, AAII 131.5 μM; for tail length compared with blank control group: AMH 10 mg/mL, ADS 93 mg/mL, ADM 3.4 μM, Kruskal–Wallis test", "experimental": "Cells in the logarithmic growth phase were inoculated in 6-well plates, and the cell density was adjusted to 2.5 × 10^5 cells /mL, 2 mL per well. After 24 h, the experimental group was combined with AAⅠ (50 μM), AAII (131.5 μM), extracts of the AMH (10 mg/mL) and ADS (93 mg/mL), the positive control group was combined with ADM (3.4 μM), and the blank control group were added with the same volume of cell culture solution. After 48 h of culture, the cells were collected. DNA damage was detected according to the operating instructions of comet assay kit. The experiment was repeated 3 times, and 50 cells were selected at each dose in each experiment and analyzed by Comet Assay software (CASP, http://casplab.com/, accessed on 5 October 2022). The mean values of tail DNA percentage, tail length, and tail moment of three experiments were used to express DNA damage. Results one-way ANOVA was used to test the data between groups, and the difference was statistically significant when p < 0.01. Data and statistical results are generated by GraphPad Prism 7 software."}, "[3]": {"tested_on": "DNA of HepG2 cells", "test": "Comet assay, DNA damage", "type": "cell-based, Human", "conditions": "HepG2, 48 h; AAI 50 μM, AAII 131.5 μM, AMH 10 mg/mL, ADS 93 mg/mL, ADM 3.4 μM; Kruskal–Wallis test"}, "[4]": {"tested_on": "HepG2 cell line", "test": "Cytotoxicity assay, MTT method", "type": "cell-based, Human", "experimental": "as §1"}, "[5]": {"tested_on": "NCI-H187 cell line", "set-up": "method as in PMID 25865074, PMID 29098873", "conditions": "cited from earlier work"}, "[6]": {"tested_on": "A549", "set-up": "method as in PMID 25865074, PMID 29098873", "conditions": "cited from earlier work"}, "[7]": {"tested_on": "MCF7", "set-up": "method as in PMID 25865074, PMID 29098873", "conditions": "cited from earlier work"}, "[8]": {"conditions": "means ± SD, read-out: IC50 values of compounds, cytotoxic activity"}, "[9]": {"conditions": "HepG2, AAI 50 μM vs AAII 131.5 μM, 48 h"}, "[10]": {"conditions": "HepG2, AAI 50 μM vs ADS extract 93 mg/mL, 48 h"}},
  "note": "Where two headings read alike, the source gives them in different places.",
  "data": [
    {"smiles": "O=C(O)c1cc2c(c3c1c([N+](=O)[O-])cc1ccc(O)cc13)OCO2", "note": "[AAC, aristolochic acid ΙΙΙ a]", "values": [
      {"measurement": "IC50", "setting": "[1]; [8]", "result": "293.5 ± 0.3", "unit": "µM"}
    ]},
    {"smiles": "O=C(O)c1cc2c(c3c1c([N+](=O)[O-])cc1ccccc13)OCO2", "note": "[AAII]", "values": [
      {"measurement": "IC50", "setting": "[1]; [8]", "result": "131.4 ± 0.1", "unit": "µM"},
      {"measurement": "damage to cellular DNA, TDNA", "setting": "[2]; HepG2, 48 h", "result": "5–20%"},
      {"measurement": "damage to the DNA of HepG2 cells", "setting": "[2]; HepG2, 48 h", "result": "no obvious damage"},
      {"measurement": "tail DNA content compared with blank control group", "setting": "[3]", "result": "no significance"}
    ]},
    {"smiles": "COc1cc(O)cc2c1cc([N+](=O)[O-])c1c(C(=O)O)cc3c(c12)OCO3", "note": "[AAD, Aristolochic acid IVa]", "values": [
      {"measurement": "IC50", "setting": "[1]; read-out: IC50 values of compounds, cytotoxic activity (symbol)", "result": "> 1000", "unit": "µM"},
      {"measurement": "cytotoxicity against HepG2 cell line", "setting": "[4]", "result": "no cytotoxicity"}
    ]},
    {"smiles": "COc1cc2c3c(cc4ccccc4c3c1OC)NC2=O", "note": "[AL-BII]", "values": [
      {"measurement": "IC50", "setting": "[1]; [8]", "result": "0.2 ± 0.1", "unit": "µM"},
      {"measurement": "cytotoxicity against HepG2 cell line", "setting": "[4]", "result": "most potent cytotoxicity"},
      {"measurement": "cytotoxicity against NCI-H187 cell line", "setting": "[5]", "result": "selective cytotoxicity"},
      {"measurement": "cytotoxicity against A549", "setting": "[6]", "result": "no cytotoxicity"},
      {"measurement": "cytotoxicity against MCF7", "setting": "[7]", "result": "no cytotoxicity"}
    ]},
    {"smiles": "COc1cccc2c1C(=O)c1c(O)c3c(c(O)c1C2=O)C[C@@](O)(C(=O)CO)C[C@@H]3O[C@H]1C[C@H](N)[C@H](O)[C@H](C)O1", "note": "[Extract of ADM, Adriamycin]", "values": [
      {"measurement": "IC50", "setting": "[1]; [8]", "result": "3.1 ± 0.1", "unit": "µM"},
      {"measurement": "tail length compared with blank control group", "setting": "[2]; HepG2, 48 h", "result": "significantly higher"},
      {"measurement": "tail DNA content compared with blank control group", "setting": "[3]", "result": "significant differences"}
    ]},
    {"smiles": "COc1cccc2c1cc1c3c(cc4c(c32)OCO4)C(=O)N1", "note": "[AL-I, aristolactam Ι]", "values": [
      {"measurement": "IC50", "setting": "[1]; [8]", "result": "135.7 ± 0.3", "unit": "µM"}
    ]},
    {"smiles": "COc1cccc2c1cc([N+](=O)[O-])c1c(C(=O)O)cc3c(c12)OCO3", "note": "[AAI, Aristolochic acid I]", "values": [
      {"measurement": "IC50 at 72 h", "setting": "[1]; [8]", "result": "50.2 ± 0.2", "unit": "µM"},
      {"measurement": "cytotoxicity against HepG2 cell line", "setting": "[4]", "result": "moderate cytotoxicity"},
      {"measurement": "damage to the DNA of HepG2 cells", "setting": "[2]; HepG2, 48 h", "result": "obviously caused damage to the DNA"},
      {"measurement": "tail length compared with blank control group", "setting": "[2]; HepG2, 48 h", "result": "significantly higher"},
      {"measurement": "tail DNA content, increase relative to AAII", "setting": "[2]; [9]", "result": 16, "unit": "times"},
      {"measurement": "tail length, increase relative to AAII", "setting": "[2]; [9]", "result": 12.8, "unit": "times"},
      {"measurement": "tail moment, increase relative to AAII group", "setting": "[2]; [9]", "result": 110, "unit": "times"},
      {"measurement": "tail DNA content, increase relative to ADS", "setting": "[2]; [10]", "result": 4.7, "unit": "times"},
      {"measurement": "tail length, increase relative to ADS", "setting": "[2]; [10]", "result": 6.8, "unit": "times"},
      {"measurement": "tail moment, increase relative to ADS group", "setting": "[2]; [10]", "result": "approximately 70 times"},
      {"measurement": "damage to cellular DNA, TDNA", "setting": "[2]; HepG2, at 50 μM, 48 h", "result": "40–95%"},
      {"measurement": "tail DNA content compared with blank control group", "setting": "[3]", "result": "significant differences"}
    ]},
    {"smiles": "COc1cc2c3c(cc4ccccc4c3c1O)NC2=O", "note": "[AL-FI]", "values": [
      {"measurement": "IC50", "setting": "[1]; [8]", "result": "417.2 ± 0.2", "unit": "µM"}
    ]}
  ]
}
